Structures are written as SMILES.

Data on one molecule can be found in paper PMC3766616, “Coniferyl Ferulate, a Strong Inhibitor of Glutathione S-Transferase Isolated from Radix Angelicae sinensis, Reverses Multidrug Resistance and Downregulates P-Glycoprotein” (Evidence-based Complementary and Alternative Medicine : eCAM, 2013).

In this assay the target is T1, Glutathione S-transferase (mainly GSTP1-1, from human placenta) (Homo sapiens, UniProt P09211).
T1 construct: GST from human placenta (mainly GSTP1-1), Sigma
T1 sequence (P09211 2-210): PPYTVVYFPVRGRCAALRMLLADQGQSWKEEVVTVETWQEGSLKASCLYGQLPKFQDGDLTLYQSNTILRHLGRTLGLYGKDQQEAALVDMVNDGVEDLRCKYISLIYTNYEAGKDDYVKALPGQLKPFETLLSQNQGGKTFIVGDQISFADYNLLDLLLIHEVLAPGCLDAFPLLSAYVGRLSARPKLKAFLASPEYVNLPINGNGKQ
Briefly: GSH/CDNB conjugation assay at […] nm; Hanes plot kinetics. It counts as biochemical.

A word on the IC50: it is the point on the concentration scale where inhibition reaches its midpoint. High values mean lower potency, low ones higher potency. Regarding `COc1cc(/C=C/COC(=O)/C=C/c2ccc(O)c(OC)c2)ccc1O` [CF, Coniferyl ferulate], the IC50 stood at 300 nM.
